The results in this text go back to ChEMBL document CHEMBL1629460, “Image-based high-throughput drug screening targeting the intracellular stage of Trypanosoma cruzi, the agent of Chagas' disease” (Antimicrob Agents Chemother, 2010).

Test [1] concerns Trypanosoma cruzi. Description: Antitrypanosomal activity against Trypanosoma cruzi CA-I/72 infected in BESM cells measured after 88 hrs postinfection by HTS assay. Type of test: functional, organism-based. The note with it: CA-I/72, BESM.
The nature of test [2]: Cytotoxicity against BESM cells after 88 hrs by HTS assay. Type of test: ADME, cell-based. The settings on record: Bos taurus.
Test [3] relates to Trypanosoma cruzi. The test can be described thus: Antitrypanosomal activity against Trypanosoma cruzi Sylvio-X10/7 infected in BESM cells measured after 88 hrs postinfection by HTS assay. It counts as functional, organism-based. The note with it: Sylvio-X10/7, BESM.
The test system of test [4] is Trypanosoma cruzi. The test can be described thus: Antitrypanosomal activity against Trypanosoma cruzi PSD-I infected in BESM cells measured after 88 hrs postinfection by HTS assay. Type of test: functional, organism-based.
Test [5] relates to Trypanosoma cruzi. The test can be described thus: Antitrypanosomal activity against Trypanosoma cruzi amastigotes infected in BESM cells measured after 88 hrs postinfection by HTS assay. It counts as functional, organism-based.
The nature of test [6]: Selectivity window, ratio of EC50 for BESM cells to EC50 for Trypanosoma cruzi amastigotes infected in BESM cells. Also on record: reference not given here.

With `CN1CCN(C(=O)N[C@@H](Cc2ccccc2)C(=O)N[C@H](/C=C/S(=O)(=O)c2ccccc2)CCc2ccccc2)CC1` [K-777], the EC50 in test [1] is 4.2 µM; in test [2] it was more than 20 µM; in test [3], 3 µM; in test [4] it was 3 µM.
As to `CC1CS(=O)(=O)CCN1/N=C/c1ccc([N+](=O)[O-])o1` (stereo not given) [NIFURTIMOX], the EC50 in test [1] is 1.2 µM; in test [2] it was more than 10 µM; in test [3], 0.7 µM; in test [4] it was 2.1 µM.
`C#C[C@]1(OC(C)=O)CC[C@H]2[C@@H]3CCC4=CC(=O)CC[C@@H]4[C@H]3CC[C@@]21C` [NORETHINDRONE ACETATE]: the EC50 in test [5] worked out at 17 µM; in test [2], 28 µM. Further, in test [6], the “Ratio EC50” value was found to be 1.6.
For `OCCN1CCN(CCCN2c3ccccc3Sc3ccc(Cl)cc32)CC1` [PERPHENAZINE] the same measures were 5 µM, 13 µM and 2.6.
For the compound `c1ccc2c(c1)Nc1ccccc1S2` [PHENOTHIAZINE], the results for the half-maximal effective concentration (EC50) in test [5] and in test [2] were 6 µM and 26 µM, respectively. Also, the “Ratio EC50” value in test [6] worked out at 4.3.
Take `CC[C@@H]([C@H](C)O)n1ncn(-c2ccc(N3CCN(c4ccc(OC[C@@H]5CO[C@@](Cn6cncn6)(c6ccc(F)cc6F)C5)cc4)CC3)cc2)c1=O` [POSACONAZOLE]: the EC50 in test [1] is 0.2 µM; in test [2], more than 2 µM; in test [3], 0.08 µM; in test [4] it was 0.13 µM.
On to `COc1cc2nc(N3CCN(C(=O)c4ccco4)CC3)nc(N)c2cc1OC` [PRAZOSIN], for which the figures for the EC50 in test [5] and in test [2] were 12 µM and 16 µM, respectively. In test [6], the “Ratio EC50” value is 1.3.
For `CN(C)CCCN1c2ccccc2Sc2ccccc21` [PROMAZINE], in that order: 13 µM, 33 µM and 2.5.
With `O=C(c1ccc(OCCN2CCCCC2)cc1)c1c(-c2ccc(O)cc2)sc2cc(O)ccc12` [RALOXIFENE], the EC50 in test [5] came to 10 µM; in test [2] it was 22 µM. Also, the “Ratio EC50” value in test [6] was determined as 2.2.
For `CC(C)CC(N(C)C)C1(c2ccc(Cl)cc2)CCC1` (stereo not given) [SIBUTRAMINE], in that order: 8 µM, 10 µM and 1.3.
Turning to `Nc1c2c(nc3ccccc13)CCCC2` [TACRINE], the concentration giving a half-maximal response (EC50) is 24 µM in test [5] and more than 50 µM in test [2]. Besides, the “Ratio EC50” value in test [6] was more than 2.1.
As to `CC(C)N1CCN(c2ccc(OCC3COC(Cn4cncn4)(c4ccc(Cl)cc4Cl)O3)cc2)CC1` (stereo not given) [TERCONAZOLE], the EC50 in test [5] is less than 0.4 µM; in test [2], 24 µM. Also, the “Ratio EC50” value in test [6] is more than 60.
For `C[C@@H]1C[C@H]2[C@@H]3CCC4=CC(=O)C=C[C@]4(C)C3=CC[C@]2(C)[C@H]1C(=O)CN1CCN(c2cc(N3CCCC3)nc(N3CCCC3)n2)CC1` [TIRILAZAD] the same measures were 28 µM, more than 50 µM and more than 1.8.
With `CCC1=C[C@@H]2CN(C1)Cc1c([nH]c3ccccc13)[C@@](C(=O)OC)(c1cc3c(cc1OC)N(C)[C@H]1[C@@](O)(C(=O)OC)[C@H](OC(C)=O)[C@]4(CC)C=CCN5CC[C@]31[C@@H]54)C2` [VINORELBINE], the EC50 in test [5] is 10 µM; in test [2], more than 50 µM. The “Ratio EC50” value in test [6] was more than 5.

The term EC50 denotes the concentration needed to bring the measured effect to its halfway point.
